Key:
[1] = tested on: healthy adult subjects; assay: Clinical study: postprandial serum insulin response (ELISA); assay type: in vivo, human
Excerpt: Thirty-two healthy adult subjects received two treatments in a double-masked, randomized, crossover design. The two treatments consisted of 50 g challenges of either maltodextrin or gamma-cyclodextrin. Blood samples were collected over a three-hour period, and breath samples collected over an eight-hour period following consumption of each carbohydrate. […] This study utilized a randomized, double-masked, crossover design, with a 4-14 day washout period between treatments. Before completing the two treatment visits, each subject completed one pre-study gastrointestinal tolerance test visit. Randomization was carried out by sealed envelopes stating which pre-study treatment was to be received, as well as in which sequence the two treatment visits were to be carried out. These envelopes were prepared from randomization schedules generated at Ross Products Division of Abbott Laboratories, Two product coordinators assigned an envelope from the top of the pile to each subject in the order that they passed all screening criteria and were given subject numbers. Besides carrying out randomization, the product coordinators were responsible for study product inventory and serving the appropriate product to subjects at each visit so that other study staff could not become aware of the study product identity. […] At each of the two treatment visits, subjects received 16 fl oz of a study product containing either 50 g of maltodextrin or 50 g of gamma-cyclodextrin. All beverages were served cold in styrofoam cups with lids and straws, labeled only with the subject number, subject initials and visit number, with the intention of hiding any slight differences in appearance that could be visible to study staff or subjects. […] A breath sample was collected for measurement of breath hydrogen. […] After consumption of the study beverage, the subject resumed fasting. Time 0 was designated as the time at which the subject began drinking the study beverage. […] Subjects were limited to the consumption of 8 fl oz of water during this three hour blood collection period. Approximately 10 mL of normal saline was injected into the vein after each blood draw in order to keep the line open and to replace the fluid lost from the blood collected. Insulin was analyzed using DSL-10-1600 Insulin ELISA Kits (Diagnostic Systems Laboratories, mc, Webster, Tex.). […] An acidic stopping solution is then added and the enzymatic turnover of TMB is determined by dual wavelength absorbance measurement at 450 and 620 nanometers. […] is proportional to the concentration of insulin present. […]

[2] = tested on: healthy adult subjects; assay: Clinical study: breath hydrogen test for carbohydrate malabsorption; assay type: in vivo, human; conditions: 3 hours after 50 g oral; p=0.01
Method: Upon completion of baseline samples, the subject proceeded to the study site and consumed 16 fl oz of one of the two test beverages in no more than 10 minutes. After consumption of the study beverage, the subject resumed fasting. Time 0 was designated as the time at which the subject began drinking the study beverage. Additional venous blood samples and capillary plasma glucose finger sticks were collected at 15, 30, 45, 60, 90, 120, 150, and 180 […] minutes after the start of the study beverage. Additional breath samples were collected at 1, 2, 3, 4, 5, 6, 7, and 8 (±10 minutes) hours postprandially. Subjects were limited to the consumption of 8 fl oz of water during this three hour blood collection period. Approximately 10 mL of normal saline was injected into the vein after each blood draw in order to keep the line open and to replace the fluid lost from the blood collected.
After the 180-minute blood and breath samples were collected, the subject was allowed to leave the study site and collect the remaining breath samples (hours 4-8) on their own. During the remainder of the breath collection period, the subject was instructed to refrain from sleep and exercise. Subjects were to remain fasting with the exception of an optional one or two 8 fl oz cans of Ensure® Plus. […]
Breath hydrogen was analyzed to determine if the carbohydrate in the study product had been malabsorbed. […]

SMILES: OC[C@H]1O[C@@H]2O[C@H]3[C@H](O)[C@@H](O)[C@@H](O[C@H]4[C@H](O)[C@@H](O)[C@@H](O[C@H]5[C@H](O)[C@@H](O)[C@@H](O[C@H]6[C@H](O)[C@@H](O)[C@@H](O[C@H]7[C@H](O)[C@@H](O)[C@@H](O[C@H]8[C@H](O)[C@@H](O)[C@@H](O[C@H]9[C@H](O)[C@@H](O)[C@@H](O[C@H]1[C@H](O)[C@H]2O)O[C@@H]9CO)O[C@@H]8CO)O[C@@H]7CO)O[C@@H]6CO)O[C@@H]5CO)O[C@@H]4CO)O[C@@H]3CO [Gamma-Cyclodextrin, Gamma-cyclodextrin]
- Serum insulin area under the curve (AUC), effect versus maltodextrin ([1]; 50 g oral challenge): significantly reduced
- Positive incremental 120 min serum insulin AUC ([1]; 50 g oral, mean±SEM, n=27 maltodextrin, n=31 gamma-cyclodextrin): 993.4±131.6
- Adjusted peak insulin value compared with maltodextrin ([1]; 50 g oral, p=0.0003): significantly decreased
- Relative insulinemic response compared to maltodextrin ([1]; baseline to 120 min, 50 g oral): 51%
- Breath hydrogen compared to maltodextrin [2]: significantly higher
